Patent publication US7745604B2, “Upstream control elements of the proopiomelanocortin gene and their use” (Oregon Health & Science University, priority 2001, dated 2010)
“And” between values parts separate entries of the source, which are not always exact repeats. Equal values may be shown once. “Also recorded” adds a separate entry of the source. Read-outs that look alike come from different tables or passages of the source. Non-standard residues stand in square brackets, D forms with d. No end group written: not given here.

Experiments:
[1] = test system: POMC neurons; test: Whole cell recordings of membrane potential of EGFP-labeled POMC neurons in ARC slices; assay type: cell-based, mouse
[2] = test system: POMC neurons; test: Action potential frequency (firing rate) of POMC neurons, whole cell or loose cell-attached recordings; assay type: cell-based, mouse; conditions: for increase in frequency of action potentials (firing rate) in POMC neurons: fenfluramine 20 μM, loose-cell-attached, n=3, reversed with washout
[3] = test system: GABAergic IPSCs in POMC neurons; test: GABAergic IPSCs recorded in POMC neurons of ARC slices; assay type: cell-based, mouse
[4] = test system: hypothalamic explants; conditions: Y2A; cited from earlier work
[5] = test system: non-POMC neurons in the arcuate nucleus; test: Membrane potential of non-fluorescent (non-POMC) neurons in the ARC; assay type: cell-based, mouse
[6] = test system: c-fos expression in the arcuate nucleus; test: c-fos expression in the lateral arcuate after IP injection, rat; assay type: in vivo; conditions: single IP injection
[7] = test system: c-fos expression in the arcuate nucleus; test: c-fos expression in arcuate nucleus of Pomc-EGFP mice after IP injection; assay type: in vivo, mouse; conditions: IP 5 μg/100 g, 2 hours
From the text: Data were obtained from 5 mice in each group. For the Pomc-EGFP mice 5 anatomically matched arcuate nucleus sections (Franklin et al., The Mouse Brain in Stereotaxic Coordinates (Academic Press, San Diego, 1997) were counted from each animal, and images acquired using a Leica TSC confocal microscope (Grove et al., Neuroscience 100:731-40, 2000).

Molecule: CCNC(C)Cc1cccc(C(F)(F)F)c1 (stereo not drawn) [Fenfluramine]
- effect on membrane potential of POMC neurons ([1]; fenfluramine, whole cell, dose dependent, n=4-8 per dose): depolarized POMC neurons
- increase in frequency of action potentials (firing rate) in POMC neurons [2]: two fold increase
- increase in frequency of action potentials (firing rate) in POMC neurons ([2]; listed as d-FEN): doubling

Molecule: Clc1cncc(N2CCNCC2)n1 [MK 212, 6-Chloro-2-(1-piperazinyl)pyrazine]
- effect on resting membrane potential of POMC neurons [1]: depolarized POMC neurons

Molecule: NC1=N[C@H](O)[C@H]2[C@H]3O[C@]4(O)O[C@@H]([C@@H](O)[C@@]2(N1)[C@@H]4O)[C@]3(O)CO [TTX, tetrodotoxin]
- effect on large amplitude IPSCs [3]: abolished large IPSCs

Molecule: Clc1cccc(N2CCNCC2)c1 [mCPP, 1-(3-Chlorophenyl)piperazine]
- effect on resting membrane potential of POMC neurons [1]: depolarized POMC neurons

Molecule: NCCc1c[nH]c2ccc(O)cc12 [serotonin]
- effect on resting membrane potential of POMC neurons ([1]; serotonin receptor agonists bath-applied four minutes, whole cell, n=4-8 per dose): increased the resting membrane potential (depolarized)

Molecule: D-Trp^8-γMSH (YVMGHFR[dW]DRFG)
- POMC neurons hyperpolarized of cells tested ([1]; D-Trp8-γMSH 7 nM): 9 of 15
- effect on membrane potential of POMC neurons ([1]; D-Trp8-γMSH, FIG. 4c): hyperpolarizes POMC neurons
- POMC neurons with increased IPSC frequency of cells tested ([3]; D-Trp8-γMSH 7 nM): 3 of 4
- effect on frequency of GABAergic IPSCs in POMC neurons ([3]; D-Trp8-γMSH 7 nM, FIG. 4b): increases the frequency of GABAergic IPSCs
- effect on frequency of action potentials ([2]; D-Trp8-γMSH 7 nM): decreased the frequency of action potentials

Molecule: Ghrelin: known appetite stimulant; agent known to increase feeding, caloric intake, and appetite (GSSFLSPEHQRVQQRKESKKPPAKLQPR; ends and bridges not checked; UniProt Q9UBU3 24-51, looked up)
- mean hyperpolarization of POMC neurons ([1]; Ghrelin 50 nM, three minutes, whole cell, p<0.03): 1.47±0.7 mV
- effect on membrane potential of POMC neurons ([1]; Ghrelin, whole cell, FIG. 12b, 34 experiments): mildly hyperpolarizes POMC neurons
- effect on frequency of IPSCs in POMC neurons ([3]; Ghrelin 50 nM, whole cell): increase in the frequency of IPSCs; also recorded: increases the frequency of spontaneous synaptic GABA release onto POMC neurons
- decrease of action potential firing rate of POMC neurons ([2]; Ghrelin 50 nM, loose-cell-attached mode, reverses with washout): 50%

Molecule: N-acetyl (Leu^28, Leu^31) NPY (24-36) [Y2A]
- reduction of IPSC frequency ([3]; Y2A, n=8, P<0.004): 44.4±9.3%
- NPY release from hypothalamic explants [4]: significantly decreased NPY release
- α-MSH release from hypothalamic explants [4]: increase in α-MSH release

Molecule: NPY
- average hyperpolarization of POMC neurons ([1]; NPY, n=3, all POMC neurons tested): 9±6 mV
- cells in which IPSCs were still inhibited in the presence of tetrodotoxin (TTX) [3]: 6 of 6
- decrease of frequency of GABAergic IPSCs ([3]; NPY 100 nM): 55%
- time to decrease of IPSC frequency ([3]; NPY 100 nM): ≤ 3 min
- effect on frequency of mini IPSCs in POMC neurons ([3]; NPY, FIG. 4a): decreases the frequency of mini IPSCs

Molecule: PYY3-36
- POMC neurons depolarized of cells tested ([1]; PYY3-36, whole cell): 19 of the 22
- increase in frequency of action potentials ([2]; PYY3-36 10 nM, loose cell-attached, reversible, n=8): 5 fold
- increase in frequency of action potentials over control ([2]; PYY3-36 10 nM, whole-cell, n=22, P<0.05): 93%
- hyperpolarization of unidentified, presumably NPY-containing, non-POMC neurons ([5]; PYY3-36 25 nM, n=5, P<0.004): 5.2±1.16 mV
- increase in number of cells positive for c-fos vs saline [6]: 2 fold
- increase in number of arcuate cells positive for c-fos vs saline [7]: 1.8 fold
- increase in proportion of POMC neurons that express c-fos vs saline [7]: 2.6 fold
- number of arcuate cells positive for c-fos ([7]; n=5, P<0.05): 250±40

Molecule: leptin: adipostatic hormone
- mean±s.e.m. depolarization ([1]; 100 nM leptin, n=45): 9.7±1.2 mV
- reversal potential of small inward current causing depolarization ([1]; leptin 100 nM, slow voltage ramps): approximately −20 mV
- POMC cells depolarized of cells tested ([1]; leptin 0.1-100 nM): 72 of 77
- depolarization of POMC cells ([1]; leptin 0.1-100 nM): 3-30 mV
- time to depolarization after addition ([1]; leptin 0.1-100 nM): 1 to 10 min and 2 to 10 min
- cells in which IPSCs were still inhibited in the presence of tetrodotoxin (TTX) [3]: 3 of 5
- POMC cells with decreased IPSC frequency of cells tested ([3]; leptin 100 nM): 5 out of 15
- effect on frequency of IPSCs in POMC cells ([3]; leptin 100 nM, FIG. 3d, 5 cells): decreased the frequency of IPSCs
- decrease of frequency of GABAergic IPSCs ([3]; leptin 100 nM, in responding cells): 25%
- effect on frequency of action potentials ([2]; leptin, FIG. 3a, 77 POMC neurons): increases the frequency of action potentials
- adjacent non-fluorescent cells with no effect ([5]; leptin, 13 cells tested): 5 and 5 of 13
- non-POMC ARC neurons depolarized ([5]; leptin, 13 cells tested): 3
- non-fluorescent ARC neurons hyperpolarized ([5]; leptin, 13 cells tested): 5

Molecule: met-enkephalin
- effect on membrane potential of POMC neurons [1]: hyperpolarizes POMC neurons
- effect on spontaneous action potentials of POMC cells [2]: inhibits all action potentials; also recorded: prevented spontaneous action potential generation

Molecule: picrotoxin
- effect on IPSCs [3]: blocked all IPSCs
